Experimental findings from PMC8880098, “Synthesis, Antibacterial Evaluation, and Computational Studies of a Diverse Set of Linezolid Conjugates” (Pharmaceuticals, 2022) are described below.

The test system of experiment [1] is Bacillus subtilis ATCC 6633. Put plainly: Antibacterial MIC, microdilution susceptibility test (CLSI). The format is cell-based. From the text: (§1) The synthesized linezolid conjugates (3a–k, 5a–f, 7a–c, 9a–c, 11a–f, 13, and 15) were subjected for antimicrobial properties determination against Gram-positive (Staphylococcus aureus ATCC 6538, Bacillus subtilis ATCC 6633) and Gram-negative (Pseudomonas aeruginosa ATCC 15692, Escherichia coli ATCC 47076) bacteria by the standard technique.
(§2) Antibacterial properties of the synthesized compounds (3a–k, 5a–f, 7a–c, 9a–c, 11a–f, 13 and 15) were screened against Gram-positive (Staphylococcus aureus ATCC 6538, Bacillus subtilis ATCC 6633) and Gram-negative (Pseudomonas aeruginosa ATCC 15,692 and Escherichia coli ATCC 47076) bacteria utilizing the standard technique. Linezolid was used as a standard reference/drug in the current study. The tested bacterial strains were obtained from MERCIN Center, Faculty of Agriculture, Ain Shams University, Cairo, Egypt.
(§3) To determine the antibacterial activity, stock solutions of the tested compounds and standard reference were prepared with up to 100% DMSO and stored at […]. If necessary, the solutions were heated to 40–60 °C before testing to facilitate complete dissolution. Double distilled water was used in all dilutions prepared. […] A microdilution susceptibility test was used for MIC determination (Mueller–Hinton broth in 96-well plates) according to the CLSI (the Clinical and Laboratory Standards Institute, Malvern, PA, USA). The bacterial inoculum was adjusted to approximately 2.5–3 × 10^4 cells/mL in Mueller–Hinton broth and incubated in a ratio of 1:1 with the test derivatives in polystyrene 96-well flat-bottom microplates. Positive growth control (without test derivatives) and negative control (without bacteria) were included. The microplates were placed in an incubator set to 37 °C for 24 h. Absorbance was measured at 620 nm at the end of the incubation period. The cut-off level for follow-up studies was defined as a minimum of 90% inhibition of growth compared to the untreated sample. Experiments were conducted once in triplicate. For selected compounds, minimum inhibitory concentration (MIC) values were determined by dose–response experiments. Experiments were performed at least twice, in triplicate per concentration tested.

Experiment [2] concerns Escherichia coli ATCC 47076. The description is as above. The format is cell-based.
Excerpt: as §1, §2, §3

Experiment [3] relates to Pseudomonas aeruginosa ATCC 15692. The description is as above. It is filed as cell-based.
Excerpt: as §1, §2, §3

In experiment [4] the test system is Staphylococcus aureus ATCC 6538. The experiment is described as above. It is filed as cell-based.
Excerpt: as §1, §2, §3

Experiment [5] relates to Bacillus subtilis ATCC 6633. Briefly: microbe, parasite or virus in culture. Set-up: species or system bacteria; Broth microdilution MIC in Mueller-Hinton broth, absorbance at 620 nm. Conditions: ATCC6633, 24 h, read-out: Observed MIC, uM (B. subtilis).
Excerpt: as §3, with “Antibacterial properties of the synthesized compounds (3a–k, 5a–f, 7a–c, 9a–c, 11a–f, 13 and 15) were screened against Gram-positive (Staphylococcus aureus ATCC 6538, Bacillus subtilis ATCC 6633) and Gram-negative (Pseudomonas aeruginosa ATCC 15,692 and Escherichia coli ATCC 47076) bacteria utilizing the standard technique. Linezolid was used as a standard reference/drug in the current study. The tested bacterial strains were obtained from MERCIN Center, Faculty of Agriculture, Ain Shams University, Cairo, Egypt. To” for “To”

Experiment [6] has as its system Staphylococcus aureus ATCC 6538. Briefly: microbe, parasite or virus in culture. Set-up: species or system bacteria; Broth microdilution MIC in Mueller-Hinton broth, absorbance at 620 nm. Conditions: ATCC6538, 24 h, read-out: Observed MIC, uM (S. aureus).
Excerpt: as §3, with “Antibacterial properties of the synthesized compounds (3a–k, 5a–f, 7a–c, 9a–c, 11a–f, 13 and 15) were screened against Gram-positive (Staphylococcus aureus ATCC 6538, Bacillus subtilis ATCC 6633) and Gram-negative (Pseudomonas aeruginosa ATCC 15,692 and Escherichia coli ATCC 47076) bacteria utilizing the standard technique. Linezolid was used as a standard reference/drug in the current study. The tested bacterial strains were obtained from MERCIN Center, Faculty of Agriculture, Ain Shams University, Cairo, Egypt. To” for “To”

[7] abbreviates: Bacillus subtilis, ATCC6633, 24 h, Mueller–Hinton broth, 37 °C, 24 h, read-out: MIC, μg/mL ± SE, B. Subtilis (ATCC 6633).
Setting [8] is: ATCC47076, Mueller–Hinton broth, 37 °C, 24 h, read-out: MIC, μg/mL ± SE, E. Coli (ATCC 47076).
[9] abbreviates: ATCC47076, value in parentheses, read-out: MIC (μmol), E. Coli (ATCC 47076) (converted).
The mark [10] stands for this setting: ATCC15692, Mueller–Hinton broth, 37 °C, 24 h, read-out: MIC, μg/mL ± SE, P. Aeruginosa (ATCC 15692).
[11] abbreviates: ATCC15692, value in parentheses, read-out: MIC (μmol), P. Aeruginosa (ATCC 15692) (converted).
Where [12] appears, read: Staphylococcus aureus, ATCC6538, 24 h, Mueller–Hinton broth, 37 °C, 24 h, read-out: MIC, μg/mL ± SE, S. Aureus (ATCC 6538).
Where [13] appears, read: Bacillus subtilis, ATCC6633, as quoted in running text, read-out: MIC against B. subtilis.
Setting [14] is: Bacillus subtilis, ATCC6633, value in parentheses, read-out: MIC (μmol), B. Subtilis (ATCC 6633) (converted).
Where [15] appears, read: Staphylococcus aureus, ATCC6538, as quoted in running text, read-out: MIC against S. aureus.
[16] abbreviates: Staphylococcus aureus, ATCC6538, value in parentheses, read-out: MIC (μmol), S. Aureus (ATCC 6538) (converted).

Structures are written as SMILES. Values after ≈ are worked out from the molar mass of the structure shown. Where two headings read alike, the source gives them in different places.

Turning to `O=C(CNC(=O)OCc1ccccc1)NC[C@H]1CN(c2ccc(N3CCOCC3)c(F)c2)C(=O)O1` [Compound 3a, Benzyl (S)-(2-(((3-(3-fluoro-4-morpholinophenyl)-2-oxooxazolidin-5-yl)methyl)amino)-2-oxoethyl)carbamate], the MIC is 4 ± 0.3 µg/mL in experiment [1] (setting [7]); 32 ± 1 µg/mL in experiment [2] (setting [8]); 65.8 µM in experiment [2] (setting [9]); 64 ± 1.4 µg/mL in experiment [3] (setting [10]); 132 µM in experiment [3] (setting [11]); 16 ± 2.1 µg/mL in experiment [4] (setting [12]). For the same compound, the figures for the MIC in experiment [5] and in experiment [6] were 8.22 µM (≈ 4 µg/mL) and 32.9 µM (≈ 16 µg/mL), respectively.

Regarding `C[C@H](NC(=O)OCc1ccccc1)C(=O)NC[C@H]1CN(c2ccc(N3CCOCC3)c(F)c2)C(=O)O1` [Compound 3b, Benzyl ((S)-1-((((S)-3-(3-fluoro-4-morpholinophenyl)-2-oxooxazolidin-5-yl)methyl)amino)-1-oxopropan-2-yl)carbamate], the MIC was 32 ± 2.1 µg/mL in experiment [1] (setting [7]); 32 ± 2.5 µg/mL in experiment [2] (setting [8]); 63.9 µM in experiment [2] (setting [9]); 64 ± 1.9 µg/mL in experiment [3] (setting [10]); 128 µM in experiment [3] (setting [11]); 32 ± 1.5 µg/mL in experiment [4] (setting [12]). Also, the MIC in experiment [5] and in experiment [6] was 63.9 µM (≈ 32 µg/mL) throughout.

For the compound `CC(C)[C@H](NC(=O)OCc1ccccc1)C(=O)NC[C@H]1CN(c2ccc(N3CCOCC3)c(F)c2)C(=O)O1` [Compound 3c, Benzyl ((S)-1-((((S)-3-(3-fluoro-4-morpholinophenyl)-2-oxooxazolidin-5-yl)methyl)amino)-3-methyl-1-oxobutan-2-yl)carbamate], the MIC in experiment [1] (setting [7]) is 32 ± 2.7 µg/mL; in experiment [2] (setting [8]), 32 ± 1.6 µg/mL; in experiment [2] (setting [9]), 60.5 µM; in experiment [3] (setting [10]) it was 64 ± 2.9 µg/mL; in experiment [3] (setting [11]) it was 121 µM; in experiment [4] (setting [12]), 32 ± 1.1 µg/mL. Moreover, the MIC in experiment [5] and in experiment [6] was 60.5 µM (≈ 32 µg/mL) each time.

Consider `CSCC[C@H](NC(=O)OCc1ccccc1)C(=O)NC[C@H]1CN(c2ccc(N3CCOCC3)c(F)c2)C(=O)O1` [Compound 3d, Benzyl ((S)-1-((((S)-3-(3-fluoro-4-morpholinophenyl)-2-oxooxazolidin-5-yl)methyl)amino)-4-(methylthio)-1-oxobutan-2-yl)carbamate], for which the MIC was 32 ± 2 µg/mL in experiment [2] (setting [8]); 57.1 µM in experiment [2] (setting [9]); 64 ± 3.1 µg/mL in experiment [3] (setting [10]); 114 µM in experiment [3] (setting [11]); 32 ± 1.6 µg/mL in experiment [4] (setting [12]); 57.1 µM (≈ 32 µg/mL) in experiment [5]. In addition, the MIC in experiment [6] worked out at 57.1 µM (≈ 32 µg/mL).

For the compound `CC(C)[C@H](NC(=O)OC(C)(C)C)C(=O)NC[C@H]1CN(c2ccc(N3CCOCC3)c(F)c2)C(=O)O1` [Compound 3h, Tert-butyl ((S)-1-((((S)-3-(3-fluoro-4-morpholinophenyl)-2-oxooxazolidin-5-yl)methyl)amino)-3-methyl-1-oxobutan-2-yl)carbamate], the MIC in experiment [1] (setting [7]) is 32 ± 0.7 µg/mL; in experiment [2] (setting [8]), 32 ± 1.1 µg/mL; in experiment [2] (setting [9]), 64.7 µM; in experiment [3] (setting [10]) it was 32 ± 0.5 µg/mL; in experiment [3] (setting [11]) it was 64.7 µM; in experiment [4] (setting [12]) it was 32 ± 1.3 µg/mL. The MIC in experiment [5] and in experiment [6] was 64.7 µM (≈ 32 µg/mL) in each case.

Turning to `CSCC[C@H](NC(=O)OC(C)(C)C)C(=O)NC[C@H]1CN(c2ccc(N3CCOCC3)c(F)c2)C(=O)O1` [Compound 3i, Tert-butyl ((S)-1-((((S)-3-(3-fluoro-4-morpholinophenyl)-2-oxooxazolidin-5-yl)methyl)amino)-4-(methylthio)-1-oxobutan-2-yl)carbamate], the MIC is 32 ± 1.4 µg/mL in experiment [1] (setting [7]); 32 ± 0.5 µg/mL in experiment [2] (setting [8]); 60.8 µM in experiment [2] (setting [9]); 32 ± 0.8 µg/mL in experiment [3] (setting [10]); 60.8 µM in experiment [3] (setting [11]); 32 ± 2.1 µg/mL in experiment [4] (setting [12]). The MIC in experiment [5] and in experiment [6] was 60.8 µM (≈ 32 µg/mL) in each case.

In the case of `O=C(NC[C@H]1CN(c2ccc(N3CCOCC3)c(F)c2)C(=O)O1)c1ccc(F)cc1` [Compound 5b, (S)-4-Fluoro-N-((3-(3-fluoro-4-morpholinophenyl)-2-oxooxazolidin-5-yl)methyl) benzamide], the MIC in experiment [1] (setting [7]) was 1 ± 0.1 µg/mL; in experiment [1] (setting [13]), 2.33 to 2.5 µM; in experiment [1] (setting [14]) it was 2.4 µM; in experiment [1] (read-out: MIC against B. subtilis), 2.396 µM; in experiment [2] (setting [8]), 32 ± 2.4 µg/mL; in experiment [2] (setting [9]), 76.7 µM. Moreover, the MIC in experiment [3] (setting [10]) was 32 ± 1.2 µg/mL; in experiment [3] (setting [11]) it was 76.7 µM; in experiment [4] (setting [12]), 4 ± 0.1 µg/mL; in experiment [4] (setting [15]) it was 9.34 to 10 µM; in experiment [4] (setting [16]), 9.58 µM; in experiment [4] (read-out: MIC against S. aureus), 9.583 µM.

With `O=C(NC[C@H]1CN(c2ccc(N3CCOCC3)c(F)c2)C(=O)O1)c1ccc(Cl)cc1` [Compound 5c, (S)-4-Chloro-N-((3-(3-fluoro-4-morpholinophenyl)-2-oxooxazolidin-5-yl)methyl) benzamide], the MIC is 2 ± 0.1 µg/mL in experiment [1] (setting [7]); 4.61 to 5 µM in experiment [1] (setting [13]); 4.61 µM in experiment [1] (setting [14]); 32 ± 0.7 µg/mL in experiment [2] (setting [8]); 73.8 µM in experiment [2] (setting [9]); 32 ± 1.9 µg/mL in experiment [3] (setting [10]). Besides, the figures for the MIC in experiment [3] (setting [11]), in experiment [4] (setting [12]) and in experiment [6] were 73.8 µM, 8 ± 0.3 µg/mL and 18.4 µM (≈ 8 µg/mL), respectively.

With `O=C(NC[C@H]1CN(c2ccc(N3CCOCC3)c(F)c2)C(=O)O1)c1ccc([N+](=O)[O-])cc1` [Compound 5d, (S)-N-((3-(3-Fluoro-4-morpholinophenyl)-2-oxooxazolidin-5-yl)methyl)-4-nitro benzamide], the MIC in experiment [1] (setting [7]) is 1 ± 0.1 µg/mL; in experiment [1] (setting [13]) it was 2.25 µM; in experiment [1] (setting [14]), 2.25 µM; in experiment [2] (setting [8]), 32 ± 2.2 µg/mL; in experiment [2] (setting [9]) it was 72 µM; in experiment [3] (setting [10]), 32 ± 1.6 µg/mL. For the same compound, the MIC in experiment [3] (setting [11]) was 72 µM; in experiment [4] (setting [12]), 2 ± 0.1 µg/mL; in experiment [4] (setting [15]) it was 4.5 µM; in experiment [4] (setting [16]), 4.5 µM.

As to `CC(=O)NC[C@H]1CN(c2ccc(N3CCOCC3)c(F)c2)C(=O)O1` [Linezolid], the MIC in experiment [1] (setting [7]) was 0.25 ± 0.01 µg/mL; in experiment [1] (setting [14]), 0.741 µM; in experiment [2] (setting [8]) it was 8 ± 0.2 µg/mL; in experiment [2] (setting [9]), 23.7 µM; in experiment [3] (setting [10]) it was 32 ± 0.7 µg/mL; in experiment [3] (ATCC15692, read-out: MIC against P. aeruginosa), 94.9 µM. Further, the MIC in experiment [3] (setting [11]) was 94.9 µM; in experiment [4] (setting [12]), 2 ± 0.1 µg/mL; in experiment [4] (setting [15]) it was 5.93 µM; in experiment [4] (setting [16]), 5.93 µM.
